# Experimental data: ChEMBL document CHEMBL3885881, “DrugMatrix”
# Species on record: Rattus norvegicus
# Test: DrugMatrix - Regimen: Daily Repeat
# Format: toxicity, organism-based, Sprague-Dawley
# Design: regimen Daily Repeat, gender Male, age 6-8 weeks
# Conditions: in vivo, po, route oral GAVAGE, […]; for ABSOLUTE BASOPHIL / ABSOLUTE EOSINOPHIL / ABSOLUTE LYMPHOCYTE / ABSOLUTE MONOCYTE / ABSOLUTE SEGMENTED NEUTROPHIL / BASOPHIL / EOSINOPHIL / ERYTHROCYTE COUNT / HEMATOCRIT / HEMOGLOBIN / LEUKOCYTE COUNT / LYMPHOCYTE / MEAN CORPUSCULAR HEMOGLOBIN / MEAN CORPUSCULAR HEMOGLOBIN CONCENTRATION / MEAN CORPUSCULAR VOLUME / MONOCYTE / NEUTROPHIL / NUCLEATED RED BLOOD CELLS / PLATELET COUNT: tissue Blood; for ALANINE AMINOTRANSFERASE / ALBUMIN / ALKALINE PHOSPHATASE / ASPARTATE AMINOTRANSFERASE / BLOOD UREA NITROGEN / CARBON DIOXIDE / CHLORIDE / CHOLESTEROL / CREATINE PHOSPHOKINASE / CREATININE / GLUCOSE / LACTATE DEHYDROGENASE / LIPASE / PHOSPHORUS / POTASSIUM / SODIUM / TOTAL BILIRUBIN / TOTAL PROTEIN / URIC ACID: tissue Plasma
# [1] = 12 mg/kg, 120 h, dose level Low, time 5 day
# [2] = 380 mg/kg, 72 h, dose level High, time 3 day
# [3] = 380 mg/kg, 120 h, dose level High, time 5 day
compound,measurement,setting,value
COc1ncnc(NS(=O)(=O)c2ccc(N)cc2)c1OC [SULFADOXINE],ABSOLUTE BASOPHIL,[1],0 CELLS/uL
same,ABSOLUTE EOSINOPHIL,[1],0 CELLS/uL
same,ABSOLUTE LYMPHOCYTE,[1],10205.33 CELLS/uL
same,ABSOLUTE MONOCYTE,[1],178 CELLS/uL
same,ABSOLUTE SEGMENTED NEUTROPHIL,[1],483.33 CELLS/uL
same,BASOPHIL,[1],0%
same,EOSINOPHIL,[1],0%
same,ERYTHROCYTE COUNT,[1],5.46 x10E6/uL
same,HEMATOCRIT,[1],34.5%
same,HEMOGLOBIN,[1],13.53 G/DL
same,LEUKOCYTE COUNT,[1],10.87 x10E3/uL
same,LYMPHOCYTE,[1],94%
same,MEAN CORPUSCULAR HEMOGLOBIN,[1],24.8 pg
same,MEAN CORPUSCULAR HEMOGLOBIN CONCENTRATION,[1],39.27 G/DL
same,MEAN CORPUSCULAR VOLUME,[1],63.17 fL
same,MONOCYTE,[1],1.67%
same,NEUTROPHIL,[1],4.33%
same,NUCLEATED RED BLOOD CELLS,[1],0 /100WBC
same,PLATELET COUNT,[1],1312.33 x10E3/uL
same,ALANINE AMINOTRANSFERASE,[1],52 u/L
same,ALBUMIN,[1],4.1 G/DL
same,ALKALINE PHOSPHATASE,[1],476 u/L
same,ASPARTATE AMINOTRANSFERASE,[1],74.33 u/L
same,BLOOD UREA NITROGEN,[1],11.67 mg/dL
same,CARBON DIOXIDE,[1],31.67 mmol/L
same,CHLORIDE,[1],101.67 MEQ/L
same,CHOLESTEROL,[1],65.33 mg/dL
same,CREATINE PHOSPHOKINASE,[1],233 u/L
same,CREATININE,[1],0.14 mg/dL
same,GLUCOSE,[1],140.33 mg/dL
same,LACTATE DEHYDROGENASE,[1],125.67 u/L
same,LIPASE,[1],11.33 u/L
same,PHOSPHORUS,[1],10.5 mg/dL
same,POTASSIUM,[1],5.98 MEQ/L
same,SODIUM,[1],148.87 MEQ/L
same,TOTAL BILIRUBIN,[1],0.27 mg/dL
same,TOTAL PROTEIN,[1],5.87 G/DL
same,URIC ACID,[1],0.53 mg/dL
same,ABSOLUTE BASOPHIL,[2],0 CELLS/uL
same,ABSOLUTE EOSINOPHIL,[2],29.33 CELLS/uL
same,ABSOLUTE LYMPHOCYTE,[2],8090 CELLS/uL
same,ABSOLUTE MONOCYTE,[2],197 CELLS/uL
same,ABSOLUTE SEGMENTED NEUTROPHIL,[2],650.33 CELLS/uL
same,BASOPHIL,[2],0%
same,EOSINOPHIL,[2],0.33%
same,ERYTHROCYTE COUNT,[2],5.01 x10E6/uL
same,HEMATOCRIT,[2],31.2%
same,HEMOGLOBIN,[2],12.27 G/DL
same,LEUKOCYTE COUNT,[2],8.97 x10E3/uL
same,LYMPHOCYTE,[2],90%
same,MEAN CORPUSCULAR HEMOGLOBIN,[2],24.6 pg
same,MEAN CORPUSCULAR HEMOGLOBIN CONCENTRATION,[2],39.4 G/DL
same,MEAN CORPUSCULAR VOLUME,[2],62.43 fL
same,MONOCYTE,[2],2.33%
same,NEUTROPHIL,[2],7.33%
same,NUCLEATED RED BLOOD CELLS,[2],0 /100WBC
same,PLATELET COUNT,[2],1128.67 x10E3/uL
same,ALANINE AMINOTRANSFERASE,[2],92.33 u/L
same,ALBUMIN,[2],3.93 G/DL
same,ALKALINE PHOSPHATASE,[2],373.33 u/L
same,ASPARTATE AMINOTRANSFERASE,[2],93.67 u/L
same,BLOOD UREA NITROGEN,[2],13 mg/dL
same,CARBON DIOXIDE,[2],32.33 mmol/L
same,CHLORIDE,[2],99.67 MEQ/L
same,CHOLESTEROL,[2],78 mg/dL
same,CREATINE PHOSPHOKINASE,[2],280 u/L
same,CREATININE,[2],0.14 mg/dL
same,GLUCOSE,[2],143 mg/dL
same,LACTATE DEHYDROGENASE,[2],116.67 u/L
same,LIPASE,[2],11.67 u/L
same,PHOSPHORUS,[2],9.13 mg/dL
same,POTASSIUM,[2],5.99 MEQ/L
same,SODIUM,[2],144.13 MEQ/L
same,TOTAL BILIRUBIN,[2],0.2 mg/dL
same,TOTAL PROTEIN,[2],5.5 G/DL
same,URIC ACID,[2],0.37 mg/dL
same,ABSOLUTE BASOPHIL,[3],0 CELLS/uL
same,ABSOLUTE EOSINOPHIL,[3],0 CELLS/uL
same,ABSOLUTE LYMPHOCYTE,[3],5345.67 CELLS/uL
same,ABSOLUTE MONOCYTE,[3],97.67 CELLS/uL
same,ABSOLUTE SEGMENTED NEUTROPHIL,[3],423.33 CELLS/uL
same,BASOPHIL,[3],0%
same,EOSINOPHIL,[3],0%
same,ERYTHROCYTE COUNT,[3],5.09 x10E6/uL
same,HEMATOCRIT,[3],32.47%
same,HEMOGLOBIN,[3],12.83 G/DL
same,LEUKOCYTE COUNT,[3],5.87 x10E3/uL
same,LYMPHOCYTE,[3],91.33%
same,MEAN CORPUSCULAR HEMOGLOBIN,[3],25.23 pg
same,MEAN CORPUSCULAR HEMOGLOBIN CONCENTRATION,[3],39.53 G/DL
same,MEAN CORPUSCULAR VOLUME,[3],63.77 fL
same,MONOCYTE,[3],1.67%
same,NEUTROPHIL,[3],7%
same,NUCLEATED RED BLOOD CELLS,[3],0 /100WBC
same,PLATELET COUNT,[3],1282.67 x10E3/uL
same,ALANINE AMINOTRANSFERASE,[3],65.67 u/L
same,ALBUMIN,[3],3.97 G/DL
same,ALKALINE PHOSPHATASE,[3],341.33 u/L
same,ASPARTATE AMINOTRANSFERASE,[3],76 u/L
same,BLOOD UREA NITROGEN,[3],15 mg/dL
same,CARBON DIOXIDE,[3],31.33 mmol/L
same,CHLORIDE,[3],99.33 MEQ/L
same,CHOLESTEROL,[3],75 mg/dL
same,CREATINE PHOSPHOKINASE,[3],205.67 u/L
same,CREATININE,[3],0.2 mg/dL
same,GLUCOSE,[3],145 mg/dL
same,LACTATE DEHYDROGENASE,[3],115.67 u/L
same,LIPASE,[3],10.33 u/L
same,PHOSPHORUS,[3],10.13 mg/dL
same,POTASSIUM,[3],5.99 MEQ/L
same,SODIUM,[3],144.77 MEQ/L
same,TOTAL BILIRUBIN,[3],0.17 mg/dL
same,TOTAL PROTEIN,[3],5.97 G/DL
same,URIC ACID,[3],0.6 mg/dL
